Tests used:
[1] = 101 kPa, Liquid
[2] = xn = mol fraction of the nth substance listed; settings: 101 kPa, Liquid

CCCCO [butan-1-ol]
[1]
Settings	mass density [kg/m3]	speed of sound [m/s]	viscosity [mPa·s]
303.15 K	802.31	1227	2.274
313.15 K	794.37	1193	1.783

CCCCO [butan-1-ol] + ClC(Cl)Cl
[2], x2 = 0
Settings	mass density [kg/m3]	speed of sound [m/s]	viscosity [mPa·s]
303.15 K	802.31	1227	2.274
313.15 K	794.37	1193	1.783

CCCO [propan-1-ol]
[1]
Settings	mass density [kg/m3]	speed of sound [m/s]	viscosity [mPa·s]
303.15 K	796.66	1193	1.719
313.15 K	788.31	1159	1.363

CCCO [propan-1-ol] + ClC(Cl)Cl
[2], x2 = 0
Settings	mass density [kg/m3]	speed of sound [m/s]	viscosity [mPa·s]
303.15 K	796.66	1193	1.719
313.15 K	788.31	1159	1.363

ClC(Cl)Cl [trichloromethane]
[1]
Settings	mass density [kg/m3]	speed of sound [m/s]	viscosity [mPa·s]
303.15 K	1469.21	969	0.534
313.15 K	1449.74	934	0.491

ClC(Cl)Cl [trichloromethane] + CCCCO
[2]
Settings	mass density, 303.15 K [kg/m3]	mass density, 313.15 K [kg/m3]	speed of sound, 303.15 K [m/s]	speed of sound, 313.15 K [m/s]	viscosity, 303.15 K [mPa·s]	viscosity, 313.15 K [mPa·s]
x1 = 0.0512	–	823.95	–	1172	–	1.67
x1 = 0.0513	832.44	–	1207	–	2.125	–
x1 = 0.0999	861.44	–	1189	–	1.989	–
x1 = 0.1	–	852.45	–	1154	–	1.566
x1 = 0.149	890.91	881.47	1170	1135	1.829	1.45
x1 = 0.2009	922.47	912.53	1152	1116	1.683	1.341
x1 = 0.2506	953.06	942.58	1134	1098	1.531	1.23
x1 = 0.2999	983.75	972.85	1118	1081	1.394	1.136
x1 = 0.3659	1025.5	1013.85	1097	1060	1.224	1.018
x1 = 0.407	1051.86	1039.75	1084	1047	1.137	0.943
x1 = 0.4515	1080.69	1067.95	1071	1034	1.045	0.878
x1 = 0.4997	1112.25	1099	1056	1019	0.96	0.82
x1 = 0.5502	1145.88	1132.03	1043	1006	0.877	0.758
x1 = 0.6011	1180.26	–	1030	–	0.82	–
x1 = 0.6012	–	1165.78	–	993	–	0.712
x1 = 0.6527	1215.51	1200.35	1018	981	0.754	0.671
x1 = 0.702	1249.87	–	1007	–	0.709	–
x1 = 0.7021	–	1234	–	970	–	0.633
x1 = 0.7519	1285.1	1268.52	997	961	0.676	0.615
x1 = 0.802	1320.98	–	989	–	0.636	–
x1 = 0.8021	–	1303.85	–	952	–	0.579
x1 = 0.8517	1357.17	–	981	–	0.622	–
x1 = 0.8518	–	1339.4	–	945	–	0.572
x1 = 0.9023	1394.7	–	975	–	0.587	–
x1 = 0.9024	–	1376.18	–	939	–	0.547
x1 = 0.9509	1431.43	–	971	–	0.569	–
x1 = 0.951	–	1412.42	–	936	–	0.524
x1 = 1	1469.21	1449.74	969	934	0.534	0.491

ClC(Cl)Cl [trichloromethane] + CCCO
[2]
Settings	mass density, 303.15 K [kg/m3]	mass density, 313.15 K [kg/m3]	speed of sound, 303.15 K [m/s]	speed of sound, 313.15 K [m/s]	viscosity, 303.15 K [mPa·s]	viscosity, 313.15 K [mPa·s]
x1 = 0.0521	834.23	825.28	1171	1136	1.628	1.302
x1 = 0.0996	868.17	858.68	1153	1117	1.541	1.243
x1 = 0.1504	904.1	894.03	1134	1098	1.435	1.163
x1 = 0.201	939.51	928.92	1116	1080	1.331	1.077
x1 = 0.2498	973.47	962.29	1100	1064	1.233	1.013
x1 = 0.3057	1011.95	1000.09	1083	1047	1.113	0.919
x1 = 0.3499	1042.15	1029.85	1070	1034	1.044	0.872
x1 = 0.4031	1078.28	1065.26	1056	1018	0.956	0.811
x1 = 0.451	1110.46	1097	1042	1006	0.884	0.752
x1 = 0.5056	1147.02	1132.88	1028	992	0.813	0.703
x1 = 0.5541	1179.18	1164.5	1017	981	0.76	0.662
x1 = 0.5994	1209.1	1193.91	1007	972	0.723	0.635
x1 = 0.6511	1243.11	1227.27	997	961	0.68	0.605
x1 = 0.7033	1277.26	1260.87	988	951	0.654	0.592
x1 = 0.7506	1308.1	1291.08	980	944	0.629	0.57
x1 = 0.8	1340.17	1322.66	974	939	0.608	0.558
x1 = 0.8507	1373.01	1354.88	970	933	0.596	0.547
x1 = 0.9001	1404.92	1386.24	967	931	0.579	0.531
x1 = 0.9484	1436.03	1416.96	966	931	0.562	0.517
x1 = 1	1469.21	1449.74	969	934	0.534	0.491
